According to patent US20240299553A1, “INDOCARBOCYANINE LIPID DERIVATIVES FOR IN VIVO CARGO DELIVERY” (priority 2021, published 2024):

Experiments:
[1] = system: 4T1 syngeneic orthotopic breast carcinoma; experiment: Confocal microscopy of 4T1 tumor slices after i.v. injection of dual-labeled liposomes; format: in vivo, mice; conditions: 24 h post-injection; EPC/DSPE-PEG2000 liposomes, 0.2 mole % DiI and Cy5-DSPE, i.v.
Procedure: Lipids at the following molar ratios: HSPC/Chol/DSPE-PEG2000 (57/38/5) or EPC/DSPE-PEG2000 (95:5) with addition of 0.2% ICL and/or 0.2% FPL were mixed and dried under a nitrogen stream. The dry lipid cake was resuspended in PBS for a total lipid concentration of 20 mM, then incubated at 60° C. for 30 minutes. The solution was then vortexed for 2 minutes and bath sonicated. Liposomes were extruded by a syringe extruder (Avestin, Ottawa, Canada) through Whatman Nucleopore Track-Etch Membranes (200 nm pore size, 15 times). HSPC-based liposomes were extruded at 60° C., EPC-based liposomes were extruded at room temperature. Size and zeta potential were measured at room temperature in the presence of 1% phosphate-buffered saline using Zetasizer Nano (Malvern, UK). Liposomes were stored at 4° C. at a final concentration of 10 mM (total lipid) for a maximum period of 8 weeks before use.
4T1 cell line was purchased from the ATCC and verified using a sequencing core. GL261 cells were obtained from the National Cancer Institute (NCI), and CT2A cells were a gift from Dr. Tom Seyfried (Boston College). LY2 cells were from Dr. Sana Karam, University of Colorado Anschutz Medical campus. Cells were grown at 37° C. in RPMI 1640 medium containing 10% heat-inactivated fetal bovine serum, 10 mM HEPES, 100 U/ml penicillin, and […] streptomycin (all from Corning Inc. New York, NY, USA). BALB/c mice were bred in-house. Mice of 8-10 weeks of age (females) were implanted with 0.5×10^6 cells into the mammary fat pad (4T1) or subcutaneously in the jaw region (LY2) and used for experiments 1 week later when tumors reached ˜200-300 mm^3. For brain tumors, C57BL/6 mice (6-8 weeks old) were implanted with a total 1×10^5 GL261 or CT-2A cells per animal using an established protocol. To determine the distribution of liposomes in tumors and organs, liposomes were injected with 50 μl of 10 mM total lipid intravenously. Blood was collected via periorbital plexus using heparin glass capillaries, and the plasma was separated by centrifugation at 500 g for 5 min. In some experiments, mice were preinjected before dissection with 50 μl of FITC-tomato lectin (1 mg/ml) and 50 μl Hoechst 33324 (2 mg/ml) to visualize the vasculature and the nuclei. Mice were sacrificed with carbon dioxide, followed by cardiac perfusion with PBS through the left ventricle.
Nikon Eclipse AR1HD inverted confocal microscope with 405 nm, 488 nm, 561 nm, and 640 nm excitation lasers and corresponding emission filters was used. For high magnification imaging, liposomes were diluted 1:200 in PBS, mixed with glycerol at 1:1 ratio and 2 μl were placed on slide. For liposomes in plasma, the samples were diluted 1:20 and mixed with glycerol. The preparations in glycerol were spread under a coverslip and imaged under Apo60 or Apo100 Oil objective at 2048×2048 resolution. For tumor imaging, tumors or whole brains were frozen on dry ice and sliced with a blade into 1-2 mm thick slices. The slices were placed on a glass slide and imaged using Plan Apo 10 objective. Channels' voltage and laser intensity were adjusted using the dual labeled liposomes placed on a slide and imaged under the same magnification. These parameters were calibrated before each imaging session using the batch of liposomes used in that experiment. For quantification, multiple random image areas from different slices of the tumor (both periphery and center) were acquired at 512×512 resolution. Images were quantified with Fiji using customized macros. Briefly, 8-bit gray image stacks were thresholded for fluorescence in the Cy3 and Cy5 channels and the percentages of binary (positive) areas were calculated using the “Measure” function. All the data were plotted with Prism version 8.3.0 (GraphPad, San Diego, CA).

[2] = Plasma fluorescence elimination profile after liposome injection; format: in vivo, mice; conditions: 24 h post-injection; DiI/Cy5-DSPE liposomes
Procedure: 4T1 cell line was purchased from the ATCC and verified using a sequencing core. GL261 cells were obtained from the National Cancer Institute (NCI), and CT2A cells were a gift from Dr. Tom Seyfried (Boston College). LY2 cells were from Dr. Sana Karam, University of Colorado Anschutz Medical campus. Cells were grown at 37° C. in RPMI 1640 medium containing 10% heat-inactivated fetal bovine serum, 10 mM HEPES, 100 U/ml penicillin, and […] streptomycin (all from Corning Inc. New York, NY, USA). BALB/c mice were bred in-house. Mice of 8-10 weeks of age (females) were implanted with 0.5×10^6 cells into the mammary fat pad (4T1) or subcutaneously in the jaw region (LY2) and used for experiments 1 week later when tumors reached ˜200-300 mm^3. For brain tumors, C57BL/6 mice (6-8 weeks old) were implanted with a total 1×10^5 GL261 or CT-2A cells per animal using an established protocol. […]
Tumors and livers were placed in a 24-well plate and scanned as described above. […] Mean fluorescence was determined from 8-bit TIFF images using Fiji software by drawing a region of interest around the tumors and using the “Measure” function to determine mean gray values. […] For plasma fluorescence profile, plasma collected at different time points was serially diluted, dotted on a nitrocellulose membrane, scanned as above, and the mean fluorescence of dots was plotted versus time with Prism.

[3] = Ex vivo fluorescence imaging of excised tumors and livers; format: in vivo, mice
Procedure: Tumors and livers were placed in a 24-well plate and scanned as described above. To match the intensity of the channels, the same liposomes used for injection were diluted (1:10), dotted on a 0.45 μm nitrocellulose membrane, and scanned together with the samples. Mean fluorescence was determined from 8-bit TIFF images using Fiji software by drawing a region of interest around the tumors and using the “Measure” function to determine mean gray values. Such measurement is independent of the organ cross-section area. The mean gray values of non-injected tumors were subtracted from the measurements. For plasma fluorescence profile, plasma collected at different time points was serially diluted, dotted on a nitrocellulose membrane, scanned as above, and the mean fluorescence of dots was plotted versus time with Prism.

[4] = Lipid extraction of tumors and organs, dye biodistribution; format: in vivo, mice; conditions: 48 h post-injection
Procedure: (§1) For extraction using a modified Bligh-Dyer method, 50-100 mg tissue was homogenized as described above, 10 parts of chloroform/methanol (2:1) were added to the homogenate (considering that tissue weight is 1 part), and the samples were mixed at 1400 rpm for 2 h at room temperature on Eppendorf Thermomixer. The tubes were centrifuged at 500 g for 10 min. The organic phase (bottom, approximately 80% of the added amount) was carefully collected, dotted on a PVDF membrane and scanned for DiI and Cy5 fluorescence as described above. Different dilutions of liposomes (standard curve) were scanned together with the samples. The percentage of the injected DiI and Cy5 in the extract was calculated from the standard curve and divided by tissue weight. The fluorescence of control non-injected organs was subtracted from that of injected organs. For TLC analysis, the mobile phase consisted of chloroform: methanol (9:1) with 1% trifluoroacetic acid and the samples were run on TLC Silica Gel 60 F254 plates (EMD Millipore).

[5] = TLC of liver extracts of mice injected with liposomes; format: in vivo; conditions: 24 h and 48 h post-injection of DiI/Cy5-DSPE liposomes
Procedure: as §1

In the case of `CCCCCCCCCCCCCCCCCC(=O)OC[C@H](COP(=O)(O)OCCNC(=O)CCCCCN1C(=CC=CC=CC2=[N+](C)c3ccccc3C2(C)C)C(C)(C)c2ccccc21)OC(=O)CCCCCCCCCCCCCCCCC` [Cy5-DSPE], the “extravasation and distribution in tumor” value [1] is reported as “mostly confined to blood vessels”, the “dye cleared from the circulation” value [2] is reported as “approximately 80%” and the “fluorescence in liver images over time” value ([3]; livers, later time points versus 1 h) is reported as “decrease”. For the same compound, the “fluorescence in tumor images over time” value ([3]; tumors, 1 h, 24 h, 48 h post-injection) was “plateaued at 24 h and dropped at 48 h”, the “tissues with the highest dye amount” value [4] was “highest in the tumor and kidney” and the “dye amount in tumor and organ extracts over time” value ([4]; tumors, livers, spleens, kidneys, 1 h, 24 h) was “dropped over time in all the organs”. The “TLC of liver extracts of injected mice” value [5] was “degradation and disappearance”.
